Test [1] concerns the target T1, Caspase-3 (Homo sapiens, UniProt P42574).
T1 sequence (P42574 whole entry): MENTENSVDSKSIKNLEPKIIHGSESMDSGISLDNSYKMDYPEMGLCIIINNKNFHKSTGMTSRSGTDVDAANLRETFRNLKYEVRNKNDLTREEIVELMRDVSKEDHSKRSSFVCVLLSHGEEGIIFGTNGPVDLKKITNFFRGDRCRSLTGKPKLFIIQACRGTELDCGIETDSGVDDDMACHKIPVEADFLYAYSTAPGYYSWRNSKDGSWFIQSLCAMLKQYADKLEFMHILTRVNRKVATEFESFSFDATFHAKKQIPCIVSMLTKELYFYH
Briefly: SAR Analysis of small molecule inhibitors of Sentrin-specific proteases (SENPs) using a Caspase-3 Selectivity assay. [Related pubchem assays (depositor defined):AID2540, AID2599, AID434973, AID489001]. The format is functional.

Test [2] concerns the target T2, Sentrin-specific protease 6 (Homo sapiens, UniProt Q9GZR1).
T2 sequence (Q9GZR1 whole entry): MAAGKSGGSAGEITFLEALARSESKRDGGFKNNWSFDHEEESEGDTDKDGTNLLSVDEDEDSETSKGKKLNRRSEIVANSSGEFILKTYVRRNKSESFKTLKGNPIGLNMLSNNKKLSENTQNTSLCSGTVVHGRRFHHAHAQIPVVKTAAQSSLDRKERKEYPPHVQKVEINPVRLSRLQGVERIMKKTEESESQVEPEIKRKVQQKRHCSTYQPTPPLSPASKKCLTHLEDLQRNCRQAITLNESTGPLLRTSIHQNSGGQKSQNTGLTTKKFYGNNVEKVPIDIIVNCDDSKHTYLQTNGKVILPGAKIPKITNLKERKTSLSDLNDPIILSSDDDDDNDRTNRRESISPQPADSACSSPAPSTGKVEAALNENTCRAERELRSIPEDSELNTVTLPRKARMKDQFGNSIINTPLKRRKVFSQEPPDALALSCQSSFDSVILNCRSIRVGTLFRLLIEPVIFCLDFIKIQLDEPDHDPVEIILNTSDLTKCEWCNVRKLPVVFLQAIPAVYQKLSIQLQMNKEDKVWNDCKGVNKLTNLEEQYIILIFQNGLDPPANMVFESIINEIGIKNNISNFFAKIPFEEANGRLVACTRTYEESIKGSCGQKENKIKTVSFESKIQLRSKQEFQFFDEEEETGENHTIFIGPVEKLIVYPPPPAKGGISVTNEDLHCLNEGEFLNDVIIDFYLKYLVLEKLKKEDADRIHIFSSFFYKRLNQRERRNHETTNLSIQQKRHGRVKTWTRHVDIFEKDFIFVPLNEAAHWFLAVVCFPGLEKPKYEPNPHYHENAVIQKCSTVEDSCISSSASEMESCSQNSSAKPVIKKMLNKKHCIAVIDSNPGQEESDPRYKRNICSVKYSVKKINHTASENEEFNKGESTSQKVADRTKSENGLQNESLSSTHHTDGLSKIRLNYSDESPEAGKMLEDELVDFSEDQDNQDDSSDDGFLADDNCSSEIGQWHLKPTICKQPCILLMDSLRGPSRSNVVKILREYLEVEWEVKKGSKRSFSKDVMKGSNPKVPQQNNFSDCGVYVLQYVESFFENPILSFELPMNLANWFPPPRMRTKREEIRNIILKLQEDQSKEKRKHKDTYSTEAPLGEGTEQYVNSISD
Briefly: SAR Analysis of small molecule inhibitors of Sentrin-specific protease 6 (SENP6) using a Luminescent assay. [Related pubchem assays (depositor defined):AID2582, AID2599]. The test is classed as functional.

Test [3] has as its target T3, Sentrin-specific protease 7 (Homo sapiens, UniProt Q9BQF6).
T3 sequence (Q9BQF6 whole entry): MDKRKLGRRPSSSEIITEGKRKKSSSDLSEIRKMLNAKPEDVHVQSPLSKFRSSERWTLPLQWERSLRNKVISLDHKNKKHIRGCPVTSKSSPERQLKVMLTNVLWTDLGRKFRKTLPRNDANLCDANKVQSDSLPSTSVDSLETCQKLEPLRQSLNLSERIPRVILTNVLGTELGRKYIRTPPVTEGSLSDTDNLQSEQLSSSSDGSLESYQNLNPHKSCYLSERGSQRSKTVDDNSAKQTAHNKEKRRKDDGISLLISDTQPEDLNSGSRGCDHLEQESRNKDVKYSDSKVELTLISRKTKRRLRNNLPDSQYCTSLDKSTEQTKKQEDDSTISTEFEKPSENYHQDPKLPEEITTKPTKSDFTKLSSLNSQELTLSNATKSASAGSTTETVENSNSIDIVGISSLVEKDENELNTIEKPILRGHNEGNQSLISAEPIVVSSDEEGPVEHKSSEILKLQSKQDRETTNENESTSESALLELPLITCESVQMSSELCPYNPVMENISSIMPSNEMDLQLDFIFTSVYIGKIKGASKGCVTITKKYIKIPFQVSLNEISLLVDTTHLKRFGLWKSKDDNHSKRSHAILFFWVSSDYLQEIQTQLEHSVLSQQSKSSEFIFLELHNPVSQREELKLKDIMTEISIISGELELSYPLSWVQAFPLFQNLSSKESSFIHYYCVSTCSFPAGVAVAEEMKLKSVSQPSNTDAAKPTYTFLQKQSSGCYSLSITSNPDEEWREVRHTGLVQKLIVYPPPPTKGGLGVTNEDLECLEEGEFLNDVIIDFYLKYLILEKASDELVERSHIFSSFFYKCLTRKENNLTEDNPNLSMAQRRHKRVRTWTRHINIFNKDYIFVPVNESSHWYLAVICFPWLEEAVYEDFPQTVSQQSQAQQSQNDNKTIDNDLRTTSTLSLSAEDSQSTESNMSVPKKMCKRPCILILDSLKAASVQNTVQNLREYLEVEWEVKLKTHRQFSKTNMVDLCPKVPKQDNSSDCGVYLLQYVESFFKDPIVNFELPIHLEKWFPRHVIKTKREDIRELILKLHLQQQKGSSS
Briefly: SENP7 protease inhibitors, SAR follow-up, biochemical, luminescence (AID 504497). The test is classed as functional.

Test [4] addresses T2, Sentrin-specific protease 6. Briefly: SENP6 protease inhibitors, SAR follow-up, biochemical, luminescence, set 2 (AID 588598). The format is functional.
Test [5] concerns the target T1, Caspase-3. Briefly: caspase-3 inhibitors as off-family protease, SAR follow-up, selectivity assay for SENP protease inhibitor project, biochemical, luminescence, set 2 (AID 588599). The test is classed as functional.
Test [6] addresses T4, Sentrin-specific protease 8 (Homo sapiens, UniProt Q96LD8).
T4 sequence (Q96LD8 whole entry): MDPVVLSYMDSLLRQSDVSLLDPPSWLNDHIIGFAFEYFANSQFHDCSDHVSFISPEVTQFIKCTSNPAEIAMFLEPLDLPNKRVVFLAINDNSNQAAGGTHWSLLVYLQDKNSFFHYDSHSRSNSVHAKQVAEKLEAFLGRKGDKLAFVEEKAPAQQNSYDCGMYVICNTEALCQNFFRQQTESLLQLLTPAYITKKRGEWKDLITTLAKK
Briefly: SENP8 protease inhibitors, SAR follow-up, biochemical, luminescence, set 2 (AID 588601). The format is functional.

Test [7] deals with T4, Sentrin-specific protease 8. Briefly: SENP8 protease inhibitors, SAR follow-up, biochemical, luminescence (AID 504501). The test is classed as functional.
In test [8] the target is T3, Sentrin-specific protease 7. Briefly: SENP7 protease inhibitors, SAR follow-up, biochemical, luminescence, set 2 (AID 588600). The test is classed as functional.
The target in test [9] is T5, High affinity choline transporter 1 (Homo sapiens, UniProt Q9GZV3).
T5 sequence (Q9GZV3 whole entry): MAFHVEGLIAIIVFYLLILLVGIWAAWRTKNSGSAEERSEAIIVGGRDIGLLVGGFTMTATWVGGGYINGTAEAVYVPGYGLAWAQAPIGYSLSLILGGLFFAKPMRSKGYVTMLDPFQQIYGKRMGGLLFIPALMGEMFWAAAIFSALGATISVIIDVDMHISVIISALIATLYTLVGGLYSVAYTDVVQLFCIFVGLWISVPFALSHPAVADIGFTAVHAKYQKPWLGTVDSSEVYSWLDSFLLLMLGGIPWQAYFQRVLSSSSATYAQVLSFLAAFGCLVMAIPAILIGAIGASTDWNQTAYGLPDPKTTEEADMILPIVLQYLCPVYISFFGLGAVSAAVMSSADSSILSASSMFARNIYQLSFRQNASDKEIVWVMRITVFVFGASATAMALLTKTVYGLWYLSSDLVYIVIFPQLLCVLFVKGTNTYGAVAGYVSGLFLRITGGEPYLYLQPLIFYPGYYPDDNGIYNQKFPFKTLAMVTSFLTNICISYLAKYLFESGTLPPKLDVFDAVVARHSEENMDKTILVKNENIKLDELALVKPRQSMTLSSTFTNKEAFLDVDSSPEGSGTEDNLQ
Briefly: CHT activators, dose response, cell-based, 10-point CRC, membrane potential dye (AID 602376). The format is functional.

Test [10] has as its target Latent membrane protein 1 (Human herpesvirus 4 (strain B95-8), UniProt P03230). Briefly: TES1-eGFP NF-kB reporter inhibition versus Tet-On dsRED, dose response, selectivity assay for LMP1 NF-kB inhibitor project, imaging, HEK293T, dual-color eGFP/dsRED, cherry-picks (AID 588398). The format is functional, cell-based.
In test [11] the target is T6, Hexokinase HKDC1 (Homo sapiens, UniProt Q2TB90).
T6 sequence (Q2TB90 whole entry): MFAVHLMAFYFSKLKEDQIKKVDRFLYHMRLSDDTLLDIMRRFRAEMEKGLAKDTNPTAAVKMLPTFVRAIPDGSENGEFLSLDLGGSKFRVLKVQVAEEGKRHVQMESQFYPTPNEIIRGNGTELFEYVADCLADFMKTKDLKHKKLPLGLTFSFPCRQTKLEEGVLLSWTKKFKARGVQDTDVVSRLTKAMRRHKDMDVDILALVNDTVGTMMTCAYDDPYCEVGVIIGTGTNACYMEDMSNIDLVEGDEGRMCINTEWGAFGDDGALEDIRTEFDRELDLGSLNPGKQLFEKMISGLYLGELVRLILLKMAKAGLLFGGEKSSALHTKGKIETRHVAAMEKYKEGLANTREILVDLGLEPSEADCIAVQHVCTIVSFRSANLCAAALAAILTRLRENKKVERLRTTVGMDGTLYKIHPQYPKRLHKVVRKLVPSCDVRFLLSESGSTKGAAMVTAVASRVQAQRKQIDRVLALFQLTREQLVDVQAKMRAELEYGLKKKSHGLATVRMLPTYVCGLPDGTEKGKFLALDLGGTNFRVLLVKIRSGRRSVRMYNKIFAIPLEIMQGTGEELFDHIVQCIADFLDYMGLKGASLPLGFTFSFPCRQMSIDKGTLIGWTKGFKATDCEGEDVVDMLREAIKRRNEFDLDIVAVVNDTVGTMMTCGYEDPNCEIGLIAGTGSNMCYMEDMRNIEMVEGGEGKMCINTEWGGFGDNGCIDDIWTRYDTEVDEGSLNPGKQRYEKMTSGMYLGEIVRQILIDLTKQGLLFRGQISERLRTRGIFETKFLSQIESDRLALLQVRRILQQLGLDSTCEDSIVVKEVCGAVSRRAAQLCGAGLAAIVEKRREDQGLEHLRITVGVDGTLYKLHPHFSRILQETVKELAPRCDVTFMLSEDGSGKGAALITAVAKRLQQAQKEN
Briefly: HKDC1 hexokinase inhibitors, SAR follow-up, biochemical, set 2 (AID 588355). The test is classed as functional.

Test [12] concerns the target T6, Hexokinase HKDC1. Briefly: SAR analysis of small molecule inhibitors of hexokinase domain containing I (HKDC1) - Set 3. [Related pubchem assays (depositor defined):AID493160, AID493190]. The format is functional.
A further test concerns the target Hexokinase-1 (Homo sapiens, UniProt P19367). Briefly: HK1 enzyme inhibition by HKDC1 hits, SAR follow-up, selectivity assay for HKDC1 inhibitor project, biochemical, set 2, resazurin fluorescence coupled readout (AID 588356). The format is functional. (The colour change of resazurin is a common sign of viable cells or microbes.)

Each structure is given as a SMILES string. Calls of active or inactive are those of the source. Rule as the data show it, for most assays here: actives have a measured IC50 and inactives only a lower limit.

Sequence of Latent membrane protein 1 (P03230 whole entry): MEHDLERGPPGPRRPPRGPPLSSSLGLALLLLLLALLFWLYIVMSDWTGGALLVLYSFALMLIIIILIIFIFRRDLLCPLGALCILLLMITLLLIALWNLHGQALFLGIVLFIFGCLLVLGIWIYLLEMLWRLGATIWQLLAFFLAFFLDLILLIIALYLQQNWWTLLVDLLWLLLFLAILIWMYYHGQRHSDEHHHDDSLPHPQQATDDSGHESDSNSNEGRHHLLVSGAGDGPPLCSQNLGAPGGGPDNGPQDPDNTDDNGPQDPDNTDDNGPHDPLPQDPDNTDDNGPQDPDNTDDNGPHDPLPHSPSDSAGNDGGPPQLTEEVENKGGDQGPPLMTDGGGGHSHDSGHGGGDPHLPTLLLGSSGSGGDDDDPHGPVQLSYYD
Sequence of Hexokinase-1 (P19367 whole entry): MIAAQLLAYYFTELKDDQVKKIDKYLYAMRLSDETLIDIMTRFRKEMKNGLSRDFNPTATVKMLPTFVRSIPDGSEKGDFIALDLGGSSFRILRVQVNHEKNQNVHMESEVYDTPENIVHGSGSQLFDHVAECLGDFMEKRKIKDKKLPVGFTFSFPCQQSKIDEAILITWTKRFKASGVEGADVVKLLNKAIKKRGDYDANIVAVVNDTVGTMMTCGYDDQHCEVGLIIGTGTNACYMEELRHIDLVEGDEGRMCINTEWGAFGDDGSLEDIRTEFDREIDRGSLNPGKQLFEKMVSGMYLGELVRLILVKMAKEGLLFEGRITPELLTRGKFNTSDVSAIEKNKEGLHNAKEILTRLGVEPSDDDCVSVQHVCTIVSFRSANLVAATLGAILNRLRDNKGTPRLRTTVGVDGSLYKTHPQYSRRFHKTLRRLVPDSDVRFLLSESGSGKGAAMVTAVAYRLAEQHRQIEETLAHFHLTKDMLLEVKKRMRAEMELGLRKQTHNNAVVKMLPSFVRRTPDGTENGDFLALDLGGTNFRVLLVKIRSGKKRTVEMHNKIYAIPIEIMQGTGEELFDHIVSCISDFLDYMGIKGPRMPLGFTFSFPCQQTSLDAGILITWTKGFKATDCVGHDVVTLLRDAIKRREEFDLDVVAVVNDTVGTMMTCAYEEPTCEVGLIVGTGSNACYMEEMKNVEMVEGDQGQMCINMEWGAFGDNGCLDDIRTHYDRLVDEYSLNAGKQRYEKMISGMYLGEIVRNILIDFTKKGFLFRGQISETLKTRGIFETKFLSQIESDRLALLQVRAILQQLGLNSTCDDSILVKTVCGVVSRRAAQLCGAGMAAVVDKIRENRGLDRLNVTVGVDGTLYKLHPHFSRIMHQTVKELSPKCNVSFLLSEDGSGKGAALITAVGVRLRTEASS

One may read the IC50 as the concentration that gives 50% inhibition. As to `O=C(Nc1nc2ccc(Cl)cc2s1)c1nccs1`, the IC50 at Caspase-3 [1] is 2.4 µM (active); in [2], 3.2 µM (active); in [3], 2.5 µM (active); in test [4] it was 2.89 µM (active); on Caspase-3 [5], 1.98 µM (active); in test [6] it was 2.38 µM (active). Moreover, the IC50 in [7] was 3.5 µM (active); in test [8], 2.9 µM (active).
The EC50 is the midpoint of the concentration-response curve. Regarding `CC(NCc1cc(Br)ccc1OCC(N)=O)C12CC3CC(CC(C3)C1)C2` (stereo not drawn), the EC50 in test [9] was 13.8 µM (active).
As a reminder, the AC50 is the concentration at which the activity in the assay is half-maximal. For the molecule `O=C1N[C@@H](Cc2c[nH]c3ccccc23)COC(=O)[C@H](Cc2ccc(F)cc2)C/C=C\C[C@H]1CC(=O)N(CCO)Cc1ccccc1`, the AC50 in test [10] is 30.1 µM (active).
Consider `CC(=O)NC1C(=O)N(CCN2CCOCC2)c2ccc(Br)cc21` (stereo not drawn), for which the IC50 on Hexokinase HKDC1 [11], at Hexokinase HKDC1 [12] and at Hexokinase-1 was > 80 µM (inactive) throughout.
